Assay results as given in US20260193170A1 (University of Copenhagen, priority 2022, published 2026).

Legend:
human Keap1 Kelch domain = target: T1, human Keap1 Kelch domain (Homo sapiens, UniProt Q14145); assay: Fluorescence polarization (FP) competition assay, Cy5-Nrf2 peptide probe; type: binding; settings: heterologous competition FP; Keap1 Kelch 14 nM, Cy5-Nrf2 probe 3 nM, 4% DMSO; mean ± SEM
T1 construct: human Keap1 Kelch domain (residue 321-609, UniProt Q14145); made in house; host or cells: Escherichia coli BL21 (DE3) pLysS, pRSET A vector
Summary of the method: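 Ki values came from FP competition of 12 compound concentrations (2-fold, duplicate) against 14 nM Keap1 Kelch and 3 nM Cy5-Nrf2 probe. Buffer was HEPES pH 7.4 with 4% DMSO; readings were taken at 635/670 nm after 10-15 min at room temperature. IC50 was converted to Ki using probe Kd and concentrations.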

human Keap1 Kelch = target: T2, human Keap1 Kelch (Homo sapiens, UniProt Q14145); assay: Surface plasmon resonance (SPR), immobilized Keap1 Kelch domain; type: binding; settings: 25 °C, Rmax constrained to 15 RU (theoretical max)
T2 construct: human Keap1 Kelch domain (residue 321-609, UniProt Q14145); made in house; host or cells: Escherichia coli BL21 (DE3) pLysS, pRSET A vector
Text: 768 fragments from the commercial available (Enamine) DSI-poised library were screened against the human Keap1 Kelch domain using X-ray crystallography. After data collection and processing (example 3), several crystal structures with high-resolution (1.0-2.1 Å) were identified showing fragments bound to the Keap1 binding pocket. […] To confirm XCF #0252 as a hit and determine its affinity to human Keap1 Kelch, this fragment was resynthesized (Scheme 1) and tested by surface plasmon resonance (SPR). In SPR, a dose-dependent activity was observed and an affinity of Kd=0.6 mM was measured (FIG. 2B).
SPR measurements were performed at 25° C. using a Pioneer FE FE instrument (Sartorius). The Keap1 Kelch domain was covalently immobilized on the biosensor chip surface by amine coupling to a level of 2150 RU, using a 10 mM NaOAc pH 5 immobilization buffer. The 1×HBSTET buffer supplemented with 4% DMSO was used as running buffer for the experiments. Microcalibration was performed for all SPR experiments to adjust for DMSO bulk effects (low limit of 3% and a high limit of 4%). The compound was injected in a concentration series of twofold serial dilutions ([…]-1000 μM) using standard injections at a 30 μL/min flow rate. The data were analyzed using Qdat Data Analysis Tool version 2.6.3.0 (Sartorius). […]

T1 sequence (Q14145 321-609): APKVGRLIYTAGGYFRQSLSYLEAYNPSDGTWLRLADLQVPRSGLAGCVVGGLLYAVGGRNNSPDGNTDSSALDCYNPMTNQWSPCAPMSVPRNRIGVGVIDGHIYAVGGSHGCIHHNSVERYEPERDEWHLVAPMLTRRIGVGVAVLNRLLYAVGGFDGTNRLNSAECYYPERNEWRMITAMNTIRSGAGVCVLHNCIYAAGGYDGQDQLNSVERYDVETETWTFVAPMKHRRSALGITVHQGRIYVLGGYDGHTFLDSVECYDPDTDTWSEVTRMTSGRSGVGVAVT
T2 sequence (Q14145 321-609): as above

SMILES | Ki (human Keap1 Kelch domain) [µM] | Kd (human Keap1 Kelch) [µM]
O=C(O)CC(c1ccc2c(c1)OCO2)c1ccc2ccc(OCC(=O)NC34CC5CC(CC(C5)C3)C4)cc2c1 [6e, 3-(7-(2-(((1S,3s)-adamantan-1-yl)amino)-2-oxoethoxy)naphthalen-2-yl)-3-(benzo[d][1,3]dioxol-5-yl)propanoic acid] | 0.516 ± 0.115 | –
CCCC1CCCCN1C(=O)COc1ccc2ccc(C(CC(=O)O)c3ccc4c(c3)OCO4)cc2c1 (centres unmarked) [6k, 3-(benzo[d][1,3]dioxol-5-yl)-3-(7-(2-oxo-2-(2-propylpiperidin-1-yl)ethoxy)naphthalen-2-yl)propanoic acid] | 0.063 ± 0.003 | –
O=C(O)CC(c1ccc2c(c1)OCO2)c1ccc2ccc(OCC(=O)Nc3ccccc3)cc2c1 (centres unmarked) [6l, 3-(benzo[d][1,3]dioxol-5-yl)-3-(7-(2-oxo-2-(phenylamino)ethoxy)naphthalen-2-yl)propanoic acid] | 1.88 | –
CC(Oc1ccc2ccc(C(CC(=O)O)c3ccc4c(c3)OCO4)cc2c1)C(=O)NC1CCCCCC1 (centres unmarked) [7a, 3-(Benzo[d][1,3]dioxol-5-yl)-3-(7-((1-(cycloheptylamino)-1-oxopropan-2-yl)oxy)naphthalen-2-yl)propanoic acid] | 0.153 ± 0.012 | –
CC(C(=O)O)C(c1ccc2c(c1)OCO2)c1ccc2ccc(OCC(=O)NC3CCCCCC3)cc2c1 (centres unmarked) [7c, 3-(benzo[d][1,3]dioxol-5-yl)-3-(7-(2-(cycloheptylamino)-2-oxoethoxy)naphthalen-2-yl)-2-methylpropanoic acid] | 0.015 ± 0.001 | –
CC(C)(C(=O)O)C(c1ccc2c(c1)OCO2)c1ccc2ccc(OCC(=O)NC3CCCCCC3)cc2c1 (centres unmarked) [7d, 3-(benzo[d][1,3]dioxol-5-yl)-3-(7-(2-(cycloheptylamino)-2-oxoethoxy)naphthalen-2-yl)-2,2-dimethylpropanoic acid] | 0.003 ± 0.001 | –
O=C(O)CC(c1ccc2c(c1)OCO2)c1ccc2ncc(OCC(=O)NC3CCCCCC3)cc2c1 (centres unmarked) [9a, 3-(benzo[d][1,3]dioxol-5-yl)-3-(3-(2-(cycloheptylamino)-2-oxoethoxy)quinolin-6-yl)propanoic acid] | 0.522 ± 0.067 | –
O=C(O)CC(c1ccc2c(c1)OCO2)c1ccc2ccc(OCC(=O)NC3CCCCCC3)nc2c1 (centres unmarked) [9b, 3-(benzo[d][1,3]dioxol-5-yl)-3-(2-(2-(cycloheptylamino)-2-oxoethoxy)quinolin-7-yl)propanoic acid] | 0.083 ± 0.037 | –
O=C(O)CC(c1ccc2c(c1)OCO2)c1cnc2ccc(OCC(=O)NC3CCCCCC3)cc2c1 (centres unmarked) [9c, 3-(benzo[d][1,3]dioxol-5-yl)-3-(6-(2-(cycloheptylamino)-2-oxoethoxy)quinolin-3-yl)propanoic acid] | 0.064 | –
O=C(COc1ccccc1)NC1CCCCC1 [XCF #0252, N-Cyclohexyl-2-phenoxyacetamide] | – | 600

Continued, values first:

Ki (human Keap1 Kelch domain) [µM] | Kd (human Keap1 Kelch) [µM] | SMILES
0.062 ± 0.005 | – | O=C(O)CC(c1ccc2c(c1)OCO2)c1ccc2ccc(OCC(=O)NC3CCCC3)cc2c1 (centres unmarked) [6d, 3-(benzo[d][1,3]dioxol-5-yl)-3-(7-(2-(cyclopentylamino)-2-oxoethoxy)naphthalen-2-yl)propanoic acid]
0.477 ± 0.07 | – | CC1(NC(=O)COc2ccc3ccc(C(CC(=O)O)c4ccc5c(c4)OCO5)cc3c2)CCCCC1 (centres unmarked) [6f, 3-(benzo[d][1,3]dioxol-5-yl)-3-(7-(2-((1-methylcyclohexyl)amino)-2-oxoethoxy)naphthalen-2-yl)propanoic acid]
0.056 ± 0.007 | – | CC1(C)CCC(NC(=O)COc2ccc3ccc(C(CC(=O)O)c4ccc5c(c4)OCO5)cc3c2)CC1 (centres unmarked) [6g, 3-(benzo[d][1,3]dioxol-5-yl)-3-(7-(2-((4,4-dimethylcyclohexyl)amino)-2-oxoethoxy)naphthalen-2-yl)propanoic acid]
0.019 ± 0.003 | – | O=C(O)CC(c1ccc2c(c1)OCO2)c1ccc2ccc(OCC(=O)N[C@@H]3C[C@@H]4CC[C@H]3C4)cc2c1 (stereo partly drawn) [6h, 3-(benzo[d][1,3]dioxol-5-yl)-3-(7-(2-(((1S,2R,4R)-bicyclo[2.2.1]heptan-2-yl)amino)-2-oxoethoxy)naphthalen-2-yl)propanoic acid]
0.397 ± 0.041 | – | O=C(O)CC(c1ccc2c(c1)OCO2)c1ccc2ccc(OCC(=O)N[C@H]3CC[C@H](C(F)(F)F)CC3)cc2c1 (stereo partly drawn) [6i, 3-(benzo[d][1,3]dioxol-5-yl)-3-(7-(2-oxo-2-((trans-4-(trifluoromethyl)cyclohexyl)amino)ethoxy)naphthalen-2-yl)propanoic acid]
0.045 ± 0.001 | – | O=C(O)CC(c1ccc2c(c1)OCO2)c1ccc2ccc(OCC(=O)N[C@H]3CC[C@@H](C(F)(F)F)CC3)cc2c1 (stereo partly drawn) [6j, 3-(benzo[d][1,3]dioxol-5-yl)-3-(7-(2-oxo-2-((cis-4-(trifluoromethyl)cyclohexyl)amino)ethoxy)naphthalen-2-yl)propanoic acid]
0.129 ± 0.009 | – | CN(C(=O)COc1ccc2ccc(C(CC(=O)O)c3ccc4c(c3)OCO4)cc2c1)C1CCCCCC1 (centres unmarked) [7b, 3-(benzo[d][1,3]dioxol-5-yl)-3-(7-(2-(cycloheptyl(methyl)amino)-2-oxoethoxy)naphthalen-2-yl)propanoic acid]
